Patent publication US11591365B2, “BCL9 peptides and variants thereof” (WntRx Pharmaceuticals Inc., priority 2017, dated 2023)
Where a SMILES comes first, the peptide text is derived from it. Bridges are numbered along the chain shown (N, C = ends). [ ]: non-standard residue; d: D form. 2Nal = N[C@@H](Cc1ccc2ccccc2c1)C(=O)O; Ala(cPr) = N[C@@H](CC1CC1)C(=O)O; NMeE = CN[C@@H](CCC(=O)O)C(=O)O; NMeQ = CN[C@@H](CCC(N)=O)C(=O)O; Cha = N[C@@H](CC1CCCCC1)C(=O)O; NMeD = CN[C@@H](CC(=O)O)C(=O)O; Cba = N[C@@H](CC1CCC1)C(=O)O; Tle = CC(C)(C)[C@H](N)C(=O)O; S5 = C=CCCC[C@](C)(N)C(=O)O; Ac6c = NC1(C(=O)O)CCCCC1

Experiments:
[1] = test system: Colo320DM; experiment: Colo320DM cell viability; format: cell-based, human
Description: In some embodiments, a polypeptide described herein inhibits binding of BLC9 to β-catenin when assessed in a cell-viability assay. In some embodiments, the cell-viability assay is a CellTiterGlo luminescent assay, wherein the viability of cells is quantitatively measured. Various cell lines, transformed cell lines or primary cells derived from a healthy subject or subject suffering from a disease can be used in this assay.

[2] = test system: LEF-TCF-bla HCT116 cells; experiment: Wnt reporter assay: Wnt/Beta-Catenin-LEF-TCF-bla HCT116 inhibitor screen, constitutively activated; format: cell-based; settings: 5 hours incubation with compound
Description: In various embodiments, a polypeptide described herein inhibits binding of BCL9 to β-catenin when assessed in a Wnt transcription assay. In some embodiments, the Wnt transcription assay is a cell-based assay. In some embodiments, the cell-based Wnt transcription assay is a GeneBLAzer® beta-lactamase (bla) reporter assay. Various cell lines, transformed cell lines or primary cells derived from a healthy subject or subject suffering from a disease can be used in this assay. A cell line known to be dependent on canonical Wnt/β-catenin signaling for its survival may also be used. In some embodiments, CellSensor™ LEF/TCF-bla HCT-116 cells are used in this reporter assay. These cells contain a beta-lactamase (BLA) reporter gene under the control of a 0-catenin/LEF/TCF response element stably integrated into HCT-116 cells. As the cells constitutively express beta-lactamase, adding a polypeptide that inhibits binding of BCL9 to β-catenin in this assay leads to reduced production of beta-lactamase. The efficiency of the polypeptide in suppressing Wnt transcription can therefore be quantitatively calculated in this assay. In some embodiments, a polypeptide described herein suppresses the Wnt transcription as measured in a GeneBLAzer® beta-lactamase (bla) reporter assay, which is indicative of the ability of the polypeptide to inhibit binding of BCL9 to β-catenin.
Wnt/Beta-Catenin-LEF-TCF-bla HCT116-Inhibitor Screen, Constitutively Activated. LEF-TCF-bla HCT116 cells are thawed and prepared as described above for the Activator Screen. 32 μL of cell suspension is added to each well of a 384-well Poly-D-Lysine assay plate. Cells in Assay Media are incubated for 16-24 hours in the plate at 37° C./5% CO2 in a humidified incubator. 4 μL of a 10× serial dilution of ICG-001 (control inhibitor starting concentration, 25,000 nM) or compounds are added to appropriate wells of the plate. 4 μL of Assay Media is added to all wells to bring the final assay volume to 40 μL. The plate is incubated for 5 hours at 37° C./5% CO2 in a humidified incubator. 8 μL of 1 μM Substrate Loading Solution is added to each well and the plate is incubated for 2 hours at room temperature. The plate is read on a fluorescence plate reader.

[3] = biological target: T1, β-catenin (Homo sapiens, UniProt P35222); experiment: ka(1/Ms)
Description: (§1) Table printed on a drawing sheet, FIG. 1
Head of the field: ka(1/Ms)
(§2) First copying reader's note: Kinetic binding constants printed under a sensorgram plot (Biacore assay of β-catenin binding according to the description).

[4] = biological target: T1, β-catenin; experiment: kd(1/s)
Description: as §1
Head of the field: kd(1/s)
as §2

[5] = biological target: T1, β-catenin; experiment: KD(nM)
Description: as §1
Head of the field: KD(nM)
as §2

T1 sequence (P35222 2-781 limits assumed): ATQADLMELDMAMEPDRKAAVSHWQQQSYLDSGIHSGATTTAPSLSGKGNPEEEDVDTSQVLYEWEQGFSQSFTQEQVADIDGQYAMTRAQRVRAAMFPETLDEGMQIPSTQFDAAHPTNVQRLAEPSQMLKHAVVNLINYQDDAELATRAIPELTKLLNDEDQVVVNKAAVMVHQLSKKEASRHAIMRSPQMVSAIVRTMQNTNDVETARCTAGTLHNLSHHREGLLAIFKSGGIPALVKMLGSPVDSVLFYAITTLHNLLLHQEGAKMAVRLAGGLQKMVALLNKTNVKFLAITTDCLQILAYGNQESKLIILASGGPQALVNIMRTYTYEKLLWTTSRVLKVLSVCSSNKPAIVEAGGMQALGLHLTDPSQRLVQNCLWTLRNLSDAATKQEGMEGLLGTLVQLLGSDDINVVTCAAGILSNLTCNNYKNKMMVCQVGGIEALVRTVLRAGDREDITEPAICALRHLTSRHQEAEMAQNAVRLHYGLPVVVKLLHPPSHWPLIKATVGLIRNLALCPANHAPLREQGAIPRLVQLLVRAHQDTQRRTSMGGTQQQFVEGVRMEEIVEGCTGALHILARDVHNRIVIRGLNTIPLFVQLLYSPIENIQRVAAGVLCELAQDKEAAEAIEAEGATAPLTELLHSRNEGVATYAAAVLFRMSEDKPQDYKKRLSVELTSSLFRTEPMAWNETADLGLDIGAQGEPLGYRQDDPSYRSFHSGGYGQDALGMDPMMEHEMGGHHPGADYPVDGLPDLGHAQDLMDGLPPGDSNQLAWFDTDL

Row | SMILES | IC50 [1] [µM] | IC50 [2] [µM] | ka(1/Ms) [3] [E + 5 1/Ms] | kd [4] [s⁻¹] | Kd [5] [µM]
1 | CC[C@H](C)[C@@H]1NC(=O)[C@@](C)(NC(=O)[C@H](CCCNC(=N)N)NC(=O)[C@H](CC(C)C)NC(=O)[C@@H](NC(=O)[C@H](CCC(N)=O)NC(=O)[C@H](CC(C)C)NC(=O)[C@H](CO)NC(=O)[C@H](CCCNC(=N)N)NC(=O)[C@H](CCC(N)=O)NC(=O)[C@H](CCCNC(=N)N)NC(=O)[C@H](Cc2c[nH]cn2)NC(C)=O)[C@@H](C)O)CCCC=CCCC[C@@](C)(C(=O)N[C@@H](CC2CC2)C(=O)N[C@@H](Cc2ccc3ccccc3c2)C(N)=O)NC(=O)[C@H](CCCNC(=N)N)NC(=O)[C@H](CCC(N)=O)NC1=O [SEQ ID NO: 162, HRQRSLQTLRXIQRX(Cpa)(2-Nal)] (Ac-HRQRSLQTLR[S5]IQR[S5][Ala(cPr)][2Nal]-NH2; staple 11-15) | 4.19 | 7.05 |  |  | 
2 | CC[C@H](C)[C@@H]1NC(=O)[C@@](C)(NC(=O)[C@H](CCCNC(=N)N)NC(=O)[C@H](CC(C)C)NC(=O)[C@@H](NC(=O)[C@H](CCC(N)=O)NC(=O)[C@H](CC(C)C)NC(=O)[C@H](CO)NC(=O)[C@H](CCCNC(=N)N)NC(=O)[C@H](CCC(N)=O)NC(=O)[C@H](CCCNC(=N)N)NC(=O)[C@H](Cc2c[nH]cn2)NC(C)=O)[C@@H](C)O)CCCC=CCCC[C@@](C)(C(=O)N[C@@H](CC2CCC2)C(=O)N[C@@H](Cc2ccc3ccccc3c2)C(N)=O)NC(=O)[C@H](CCCNC(=N)N)NC(=O)[C@H](CCC(N)=O)NC1=O [SEQ ID NO: 147, HRQRSLQTLRXIQRX(CBA)(2-Nal)] | 2.53 | 1.54 | 3.348 | 0.009538 | 0.0285
3 | CC[C@H](C)[C@@H]1NC(=O)[C@@](C)(NC(=O)[C@H](CCCNC(=N)N)NC(=O)[C@H](CC(C)C)NC(=O)[C@@H](NC(=O)[C@H](CCC(N)=O)N(C)C(=O)[C@H](CC(C)C)NC(=O)[C@H](CO)NC(=O)[C@H](CCCNC(=N)N)NC(=O)[C@H](CCC(=O)O)N(C)C(=O)[C@H](CCCNC(=N)N)NC(=O)[C@H](Cc2c[nH]cn2)NC(C)=O)[C@@H](C)O)CCCC=CCCC[C@@](C)(C(=O)N[C@@H](CC2CCC2)C(=O)N[C@@H](Cc2ccc3ccccc3c2)C(N)=O)NC(=O)[C@H](CCCNC(=N)N)NC(=O)[C@H](CCC(N)=O)NC1=O [SEQ ID NO: 154, HR(N-methylE)RSL(N-methylQ)TLRXIQRX(CBA)(2-Nal)] (Ac-HR[NMeE]RSL[NMeQ]TLR[S5]IQR[S5][Cba][2Nal]-NH2; staple 11-15) | 1.91 | 2.26 |  |  | 
4 | CC[C@H](C)[C@@H]1NC(=O)[C@@](C)(NC(=O)[C@H](CCCNC(=N)N)NC(=O)[C@H](CC(C)C)NC(=O)[C@@H](NC(=O)[C@H](CCC(N)=O)N(C)C(=O)[C@H](CC(C)C)NC(C)=O)[C@@H](C)O)CCCC=CCCC[C@@](C)(C(=O)N[C@@H](CC2CCC2)C(=O)N[C@@H](Cc2ccc3ccccc3c2)C(N)=O)NC(=O)[C@H](CCCNC(=N)N)NC(=O)[C@H](CCC(N)=O)NC1=O [SEQ ID NO: 108, L(N-methylQ)TLRXIQRX(CBA)(2-Nal)] (Ac-L[NMeQ]TLR[S5]IQR[S5][Cba][2Nal]-NH2; staple 6-10) | 3.1 | 3.16 |  |  | 
5 | CC[C@H](C)[C@@H]1NC(=O)[C@@](C)(NC(=O)[C@H](CCCNC(=N)N)NC(=O)[C@H](CC(C)C)NC(=O)[C@@H](NC(=O)[C@H](CCC(N)=O)NC(=O)[C@H](CC(C)C)NC(=O)[C@H](CO)NC(=O)[C@H](CCCNC(=N)N)NC(=O)[C@H](CC(=O)O)N(C)C(=O)[C@H](CCCNC(=N)N)NC(=O)[C@H](Cc2c[nH]cn2)NC(C)=O)[C@@H](C)O)CCCC=CCCC[C@@](C)(C(=O)N[C@@H](CC2CCC2)C(=O)N[C@@H](Cc2ccc3ccccc3c2)C(N)=O)NC(=O)[C@H](CCCNC(=N)N)NC(=O)[C@H](CCC(N)=O)NC1=O [SEQ ID NO: 157, HR(N-methylD)RSLQTLRXIQRX(CBA)(2-Nal)] (Ac-HR[NMeD]RSLQTLR[S5]IQR[S5][Cba][2Nal]-NH2; staple 11-15) | 3.17 |  |  |  | 

More lines, now with the values ahead:

Row | IC50 [1] [µM] | IC50 [2] [µM] | ka(1/Ms) [3] [E + 5 1/Ms] | kd [4] [s⁻¹] | Kd [5] [µM] | SMILES
6 | 1.82 | 4.46 |  |  |  | CC[C@H](C)[C@@H]1NC(=O)[C@@](C)(NC(=O)[C@H](CCCNC(=N)N)NC(=O)[C@H](CC(C)C)NC(=O)[C@@H](NC(=O)[C@H](CCC(N)=O)N(C)C(=O)[C@H](CC(C)C)NC(=O)[C@H](CO)NC(=O)[C@H](CCCNC(=N)N)NC(=O)[C@H](CCC(N)=O)N(C)C(=O)[C@H](CCCNC(=N)N)NC(=O)[C@H](Cc2c[nH]cn2)NC(C)=O)[C@@H](C)O)CCCC=CCCC[C@@](C)(C(=O)N[C@@H](CC2CCCCC2)C(=O)N[C@@H](Cc2ccc3ccccc3c2)C(N)=O)NC(=O)[C@H](CCCNC(=N)N)NC(=O)[C@H](CCC(N)=O)NC1=O [SEQ ID NO: 181, HR(N-methylQ)RSL(N-methylQ)TLRXIQRX(Cha)(2-Nal)] (Ac-HR[NMeQ]RSL[NMeQ]TLR[S5]IQR[S5][Cha][2Nal]-NH2; staple 11-15)
7 | 1.88 | 2.21 |  |  |  | CC[C@H](C)[C@@H]1NC(=O)[C@@](C)(NC(=O)[C@H](CCCNC(=N)N)NC(=O)[C@H](CC(C)C)NC(=O)[C@@H](NC(=O)[C@H](CCC(N)=O)NC(=O)[C@H](CC(C)C)NC(=O)[C@H](CO)NC(=O)[C@H](CCCNC(=N)N)NC(=O)[C@H](CCC(N)=O)NC(=O)[C@H](CCCNC(=N)N)NC(=O)[C@H](Cc2c[nH]cn2)NC(C)=O)[C@@H](C)O)CCCC=CCCC[C@@](C)(C(=O)N[C@@H](CC2CCCCC2)C(=O)N[C@@H](Cc2ccc3ccccc3c2)C(N)=O)NC(=O)[C@H](CCCNC(=N)N)NC(=O)[C@H](CCC(N)=O)NC1=O [SEQ ID NO: 180, HRQRSLQTLRXIQRX(Cha)(2-Nal)] (Ac-HRQRSLQTLR[S5]IQR[S5][Cha][2Nal]-NH2; staple 11-15)
8 | 2.67 | 4.45 |  |  |  | CC[C@H](C)[C@@H]1NC(=O)[C@@](C)(NC(=O)[C@H](CCCNC(=N)N)NC(=O)[C@H](CC(C)C)NC(=O)[C@@H](NC(=O)[C@H](CCC(N)=O)NC(=O)[C@H](CC(C)C)NC(=O)[C@H](CO)NC(=O)[C@H](CCCNC(=N)N)NC(=O)[C@H](CCC(N)=O)NC(=O)[C@H](CCCNC(=N)N)NC(=O)[C@H](Cc2c[nH]cn2)NC(C)=O)[C@@H](C)O)CCCC=CCCC[C@@](C)(C(=O)NC2(C(=O)N[C@@H](Cc3ccc4ccccc4c3)C(N)=O)CCCCC2)NC(=O)[C@H](CCCNC(=N)N)NC(=O)[C@H](CCC(N)=O)NC1=O [SEQ ID NO: 177, HRQRSLQTLRXIQRX(A6C)(2-Nal)] (Ac-HRQRSLQTLR[S5]IQR[S5][Ac6c][2Nal]-NH2; staple 11-15)
9 | 2.39 | 4.43 |  |  |  | CC[C@H](C)[C@@H]1NC(=O)[C@@](C)(NC(=O)[C@H](CCCNC(=N)N)NC(=O)[C@H](CC2CCCCC2)NC(=O)[C@@H](NC(=O)[C@H](CCC(N)=O)N(C)C(=O)[C@H](CC(C)C)NC(=O)[C@H](CO)NC(=O)[C@H](CCCNC(=N)N)NC(=O)[C@H](CCC(N)=O)N(C)C(=O)[C@H](CCCNC(=N)N)NC(=O)[C@H](Cc2c[nH]cn2)NC(C)=O)[C@@H](C)O)CCCC=CCCC[C@@](C)(C(=O)N[C@@H](CC2CCC2)C(=O)N[C@@H](Cc2ccc3ccccc3c2)C(N)=O)NC(=O)[C@H](CCCNC(=N)N)NC(=O)[C@H](CCC(N)=O)NC1=O [SEQ ID NO: 163, HR(N-methylQ)RSL(N-methylQ)T(Cha)RXIQRX(CBA)(2-Nal)] (Ac-HR[NMeQ]RSL[NMeQ]T[Cha]R[S5]IQR[S5][Cba][2Nal]-NH2; staple 11-15; N-terminus and C-terminus assumed)
10 | 3.75 |  |  |  |  | CC[C@H](C)[C@@H]1NC(=O)[C@@](C)(NC(=O)[C@H](CCCNC(=N)N)NC(=O)[C@H](CC(C)C)NC(=O)[C@@H](NC(=O)[C@H](CCC(N)=O)NC(=O)[C@H](CC(C)C)NC(=O)[C@H](CO)NC(=O)[C@H](CCCNC(=N)N)NC(=O)[C@H](CCC(N)=O)N(C)C(=O)[C@H](CCCNC(=N)N)NC(=O)[C@H](Cc2c[nH]cn2)NC(C)=O)[C@@H](C)O)CCCC=CCCC[C@@](C)(C(=O)N[C@H](C(=O)N[C@@H](Cc2ccc3ccccc3c2)C(N)=O)C(C)(C)C)NC(=O)[C@H](CCCNC(=N)N)NC(=O)[C@H](CCC(N)=O)NC1=O [SEQ ID NO: 194, HR(N-MeGln)RSLQTLRXIQRX(Tle)(2-Nal)] (Ac-HR[NMeQ]RSLQTLR[S5]IQR[S5][Tle][2Nal]-NH2; staple 11-15)
